Here are results for 15 compounds from publication PMC3063246, “Corticotropin Releasing Factor-Induced CREB Activation in Striatal Neurons Occurs via a Novel Gβγ Signaling Pathway” (PLoS ONE, 2011).

“Also recorded” adds a separate entry of the source. No end group written: not given here.

Experiment [1] has as its system CRF-induced CREB phosphorylation in striatal neurons. Briefly: Block of CRF-induced CREB phosphorylation. It counts as cell-based, rat.
The target of the next experiment is CRFR1. Also noted: method as in 5 sources, ref 26 = [26]; PMID 9918582; 26 Perrin MH Sutton SW Cervini LA Rivier JE Vale WW 1999 Comparison of an agonist, urocortin, and an antagonist, astressin, as radioligands for characterization of corticotropin-releasing factor recep ||| ref [73] (a number printed in a supplementary file, which may have a reference list of its own: not looked up in the article's list) ||| ref [74] (a number printed in a supplementary file, which may have a reference list of its own: not looked up in the article's list) ||| ref [75] (a number printed in a supplementary file, which may have a reference list of its own: not looked up in the article's list) ||| ref [76] (a number printed in a supplementary file, which may have a reference list of its own: not looked up in the article's list). As to conditions: cited from earlier work.

Experiment [2] has as its system STR-induced CREB phosphorylation. Briefly: Block of stressin-1-induced CREB phosphorylation. It counts as cell-based, rat. The settings on record: CP154526 100 nM; stressin-1 70 nM, 15 min.
The target of the next experiment is CRFR2. The settings on record: cited from earlier work. From the text: (§1) Supplement pone.0018114.s002.xlsx, sheet "Sheet1" | column: Target (notes)
Experiment [3] relates to ISO-induced cAMP accumulation. The experiment can be described thus: Block of ISO-induced cAMP accumulation. In kind it is cell-based, rat. The settings on record: SQ22536 90 µM; ISO 10 µM; IBMX 75 µM.
The test system of the next experiment is PKA. As to conditions: cited from earlier work.
Text: as §1

Experiment [4] has as its system CREB phosphorylation in cultured striatal neurons. It counts as cell-based, rat. As to conditions: AC agonist, 25 µM.
Another experiment concerns PI3K. As to conditions: 100 nM; cited from earlier work.
Text: as §1

A further experiment addresses CRF receptor 1 (UniProt P34998). As to conditions: cited from earlier work.
The mark [5] stands for this setting: inhibitor 100 nM, 30 min prior and concurrently, CRF 15 min.
[6] abbreviates: inhibitor 500 nM, 30 min prior and concurrently, CRF 15 min, data not shown.
Where [7] appears, read: inhibitor 1 µM, 30 min prior and concurrently, CRF 15 min, data not shown.
The mark [8] stands for this setting: inhibitor 10 µM, 30 min prior and concurrently, CRF 15 min.

CRF receptor 1, sequence (P34998 24-415): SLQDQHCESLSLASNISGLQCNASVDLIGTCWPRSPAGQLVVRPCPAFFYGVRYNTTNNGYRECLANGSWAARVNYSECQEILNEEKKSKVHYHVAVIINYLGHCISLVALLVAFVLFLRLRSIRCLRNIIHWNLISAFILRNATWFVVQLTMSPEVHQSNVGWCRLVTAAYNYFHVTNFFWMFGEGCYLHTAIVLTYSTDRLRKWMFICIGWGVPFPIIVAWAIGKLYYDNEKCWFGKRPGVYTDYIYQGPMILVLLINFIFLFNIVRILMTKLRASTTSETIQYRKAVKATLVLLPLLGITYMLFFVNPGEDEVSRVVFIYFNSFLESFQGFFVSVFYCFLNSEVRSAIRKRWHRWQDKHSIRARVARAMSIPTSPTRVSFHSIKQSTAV

For `CCCCN(CC)c1nc(C)nc2c1c(C)cn2-c1c(C)cc(C)cc1C` [CP154526], the “effect on CRF-induced CREB phosphorylation” value in experiment [1] (setting [5]) is “eliminated CRF-induced CREB phosphorylation; also recorded: blocked”. Besides, the inhibition constant (Ki) is 2.7 nM at CRFR1 and > 10000 nM on CRFR2. Also, the “effect on STR-induced CREB phosphorylation” value in experiment [2] is listed as “blocked”. As to `Cc1cncc2cccc(S(=O)(=O)N3CCCNC[C@@H]3C)c12` [H-1152], the “effect on CRF-induced CREB phosphorylation” value in [1] (setting [6]) is given as “failed to affect CRF-induced CREB phosphorylation”. As for `CCCCCCOC(=O)[C@]1(O)C[C@@H]2O[C@@]1(C)n1c3ccccc3c3c4c(c5c6ccccc6n2c5c31)C(=O)NC4` [KT5720], the “effect on CRF-induced CREB phosphorylation” value in experiment [1] (setting [7]) is “failed to eliminate CRF-induced CREB phosphorylation”.

`COc1cccc(-c2cc(=O)c3ccccc3o2)c1N` [PD98059]: the “effect on CRF-induced CREB phosphorylation” value in [1] (inhibitor 25 µM, 30 min prior and concurrently, CRF 15 min, data not shown) was “yielded a similar result”. On to `Nc1ncnc2c1ncn2C1CCCO1` (centres unmarked) [SQ22536], for which the “effect on CRF-induced CREB phosphorylation” value in [1] (inhibitor 90 µM, 30 min prior and concurrently, CRF 15 min) is given as “had no effect on CRF-induced CREB phosphorylation; also recorded: failed to affect CRF-induced CREB phosphorylation”. Also, the “effect on ISO-induced cAMP formation” value in experiment [3] is reported as “completely blocked ISO-induced cAMP accumulation; also recorded: completely blocked ISO-induced cAMP formation”. On to `N#CC(=C(/N)Sc1ccccc1N)/C(C#N)=C(/N)Sc1ccccc1N` [U0126], for which, in experiment [1] (setting [8]), the “effect on CRF-induced CREB phosphorylation” value was “blocked CRF-induced CREB phosphorylation”.

As for `CCN(CC)CC.Nc1ncnc2c1ncn2[C@@H]1O[C@@H]2COP(O)(=S)O[C@H]2[C@H]1O` (some centres unmarked) [cAMPS-Rp, triethylammonium salt], in [1] (setting [8]), the “effect on CRF-induced CREB phosphorylation” value is given as “failed to eliminate CRF-induced CREB phosphorylation”. For the same compound, in the experiment with PKA, the EC50 was 11000 to 16000 nM. Turning to `C=C[C@@]1(C)CC(=O)[C@]2(O)[C@@]3(C)[C@@H](O)CCC(C)(C)[C@@H]3[C@H](O)[C@H](OC(C)=O)[C@@]2(C)O1` [forskolin], the CREB phosphorylation result in experiment [4] is recorded as “CREB phosphorylation stimulated”.

For `COC(=O)C1=C(C)NC(C)=C(C(=O)OC)C1c1ccccc1[N+](=O)[O-]` [nifedipine], the “effect on CRF-induced CREB phosphorylation” value in experiment [1] (inhibitor 5 µM, 30 min prior and concurrently, CRF 15 min) was “had no effect on CRF-induced CREB phosphorylation; also recorded: not affected”. With `COC[C@H]1OC(=O)c2coc3c2[C@@]1(C)C1=C(C3=O)[C@@H]2CCC(=O)[C@@]2(C)C[C@H]1OC(C)=O` [wortmannin], the “effect on CRF-induced CREB phosphorylation” value in [1] (setting [6]) is “failed to affect CRF-induced CREB phosphorylation”. The PI3K inhibition result with PI3K was “PI3K (100 nM inhibits PI3K)”. For the compound “Corticotropin releasing factor (from UniProt P06850)”, the Kd with CRF receptor 1 was 7.5 nM.

In the case of “PKI, 14–22 amide: cell permeable peptide PKA inhibitor (SGRTGRRNA-NH2; not fully specified (N-terminus); also: myristoylated, site not given here; UniProt P61925 14-22, looked up, fragment)”, the “effect on CRF-induced CREB phosphorylation” value in experiment [1] (setting [7]) is given as “failed to eliminate CRF-induced CREB phosphorylation”. The inhibitory constant (Ki) on PKA is 36 nM. As for antisauvagine-30, in experiment [1] (setting [5]), the “effect on CRF-induced CREB phosphorylation” value was “failed to block CRF-induced CREB phosphorylation; also recorded: had no effect on CRF-induced CREB phosphorylation”. Also, the dissociation constant (Kd) on CRFR1 was 154 nM; on CRFR2, 1.4 nM. In the case of astressin, the “effect on CRF-induced CREB phosphorylation” value in experiment [1] (inhibitor 50 nM, 30 min prior and concurrently, CRF 15 min) is given as “completely abolished CRF-induced CREB phosphorylation; also recorded: blocked”. Moreover, the inhibition constant (Ki) is 1.6 to 2 nM on CRFR1 and 1.5 to 2.8 nM on CRFR2.

For pertussis toxin [PTX], the “effect on CRF-induced CREB phosphorylation” value in experiment [1] (PTX overnight (18 hr) pretreatment, 0.5 µng/µL, 500 ng/mL) is reported as “did not alter CRF-mediated CREB phosphorylation; also recorded: did not affect CRF-induced pCREB”.
